{
  "source": "patent US4370459A",
  "about": "“Polymerizing unsaturated monomers with gem-diperoxyester catalyst” (priority 1980, dated 1983)",
  "key": {"[1]": {"experiment": "Half-lives of gem-diperoxyesters (10 hour half-life temperature)", "format": "physicochemical", "details": "0.2M in benzene", "source_text": "HALF-LIFES OF VARIOUS GEM-DIPEROXYESTERS"}, "[2]": {"experiment": "Suspension polymerization of vinyl chloride monomer in pop bottles with gem-diperoxyester initiators", "method": "A series of polymerizations was performed to illustrate the improved efficiencies of the new compounds as initiators of vinyl chloride monomer. 2,2-Bis(2-ethyl hexanoylperoxy)butane (KP-A) is one compound that can be made by the procedures of the above referenced Japanese patents and was included as typical of the prior art.\nThe data in Table III were obtained in the following manner:\nThe suspension polymerizations were performed in pop bottles using uninhibited monomer. Duplicate bottles were analyzed at each polymerization time interval. The following table lists some general information about the polymerization procedure used.\nAfter the desired amounts of reactants were added to the pop bottles, they were capped, the contents almost melted, and the bottles placed in a rotating constant temperature bath at the temperatures and for the times shown in Table III. The bottles were frozen before venting-off excess monomer. The polymer was filtered, washed, and dried. All initiator concentrations shown have been corrected for purity."}, "[3]": {"experiment": "Hot block gel tests with polyester resin (curing)", "details": "0.75 % Wt used", "method": "The unsaturated polyester resins cured by the present process comprises those polyesters described in U.S. Pat. No. 4,129,613, the disclosure thereof being incorporated by reference herein. The following Table IV is typical of the improved results obtained with the present compounds.\nHOT BLOCK GEL TESTS WITH POLYESTER RESIN\nUSING VARIOUS GEM-DIPEROXYESTERS\nResin: USS Chemical MR-941 (Isophthalic)\nBlock Temp.: 180 ± 1° F. (82° C.)\nPeroxide Concentration Corrected for Purity, […]"}, "[4]": {"details": "SET 1, 7 hrs. at 22° C., 0.10 % Wt. used"}, "[5]": {"details": "SET 2, 7 hrs. at 40° C., 4.01 × 10^-4 moles initiator/100g VCM"}, "[6]": {"details": "SET 3, 6 hrs. at 50° C., 2.50 × 10^-4 moles initiator/100g VCM"}, "[7]": {"details": "SET 1, block temp. 180 ± 1° F. (82° C.)"}, "[8]": {"details": "SET 2, block temp. 180 ± 1° F. (82° C.)"}, "[9]": {"details": "SET 1, 7 hrs. at 22° C., 0.20 % Wt. used"}, "[10]": {"details": "SET 4, 5.5 hrs. at 55° C., 1.25 × 10^-4 moles initiator/100g VCM"}, "[11]": {"details": "SET 4, 5.5 hrs. at 55° C., 1.75 × 10^-4 moles initiator/100g VCM"}, "[12]": {"details": "SET 5, 5 hrs. at 60° C., 1.25 × 10^-4 moles initiator/100g VCM"}, "[13]": {"details": "SET 5, 5 hrs. at 60° C., 1.75 × 10^-4 moles initiator/100g VCM"}, "[14]": {"details": "SET 3, 6 hrs. at 50° C., 1.50 × 10^-4 moles initiator/100g VCM"}},
  "data": [
    {"compound": "3,3-bis(neodecanoylperoxy)pentane [KP-C]", "values": [
      {"measurement": "10 Hour Half-Life Temperature", "setting": "[1]", "result": 23.3, "unit": "°C"},
      {"measurement": "% Conversion", "setting": "[2]; [4]", "result": 27.8, "unit": "%"},
      {"measurement": "% Conversion", "setting": "[2]; [5]", "result": 63.1, "unit": "%"},
      {"measurement": "% Conversion", "setting": "[2]; [6]", "result": 38.0, "unit": "%"},
      {"measurement": "Peak Temp (exotherm)", "setting": "[3]; [7]", "result": 225, "unit": "°F."}
    ]},
    {"compound": "CC(C)(C)C1CCC(OC(=O)OOC(=O)OC2CCC(C(C)(C)C)CC2)CC1", "note": "(centres unmarked) [DBCPD, Di4-t-butyl cyclohexylperoxydicarbonate, reference compound]", "values": [
      {"measurement": "Peak Temp (exotherm)", "setting": "[3]; [7]", "result": 244, "unit": "°F."},
      {"measurement": "Peak Temp (exotherm)", "setting": "[3]; [8]", "result": 260, "unit": "°F."}
    ]},
    {"compound": "CCCCC(CC)C(=O)OOC(C)(CC)OOC(=O)C(CC)CCCC", "note": "(centres unmarked) [KP-A, 2,2-Bis(2-Ethyl Hexanoylperoxy)Butane, reference compound]", "values": [
      {"measurement": "10 Hour Half-Life Temperature", "setting": "[1]", "result": 43.7, "unit": "°C"},
      {"measurement": "% Conversion", "setting": "[2]; [9]", "result": 5.0, "unit": "%"},
      {"measurement": "% Conversion", "setting": "[2]; [5]", "result": 45.9, "unit": "%"},
      {"measurement": "% Conversion", "setting": "[2]; [6]", "result": 75.85, "unit": "%"},
      {"measurement": "% Conversion", "setting": "[2]; [10]", "result": 53.4, "unit": "%"},
      {"measurement": "% Conversion", "setting": "[2]; [11]", "result": 72.1, "unit": "%"},
      {"measurement": "% Conversion", "setting": "[2]; [12]", "result": 67.8, "unit": "%"},
      {"measurement": "% Conversion", "setting": "[2]; [13]", "result": 83.2, "unit": "%"},
      {"measurement": "Peak Temp (exotherm)", "setting": "[3]; [8]", "result": 275, "unit": "°F."}
    ]},
    {"compound": "CCC(CC)(OOC(=O)C(C)(C)C)OOC(=O)C(C)(C)C", "note": "[KP-B, 3,3-bis(pivaloylperoxy)pentane]", "values": [
      {"measurement": "10 Hour Half-Life Temperature", "setting": "[1]", "result": 24, "unit": "°C"},
      {"measurement": "% Conversion", "setting": "[2]; [4]", "result": 52.2, "unit": "%"},
      {"measurement": "% Conversion", "setting": "[2]; [5]", "result": 90.4, "unit": "%"},
      {"measurement": "% Conversion", "setting": "[2]; [6]", "result": 51.8, "unit": "%"},
      {"measurement": "Peak Temp (exotherm)", "setting": "[3]; [7]", "result": 221, "unit": "°F."}
    ]},
    {"compound": "CCCCC(CC)C(=O)OOC(CC)(CC)OOC(=O)C(CC)CCCC", "note": "(centres unmarked) [KP-D, 3,3-bis(2-ethylhexanoylperoxy)pentane]", "values": [
      {"measurement": "10 Hour Half-Life Temperature", "setting": "[1]", "result": 39.7, "unit": "°C"},
      {"measurement": "% Conversion", "setting": "[2]; [9]", "result": 10.7, "unit": "%"},
      {"measurement": "% Conversion", "setting": "[2]; [5]", "result": 75.4, "unit": "%"},
      {"measurement": "% Conversion", "setting": "[2]; [14]", "result": 79.1, "unit": "%"},
      {"measurement": "% Conversion", "setting": "[2]; [6]", "result": 89.1, "unit": "%"},
      {"measurement": "% Conversion", "setting": "[2]; [10]", "result": 69.6, "unit": "%"},
      {"measurement": "% Conversion", "setting": "[2]; [11]", "result": 84.2, "unit": "%"},
      {"measurement": "% Conversion", "setting": "[2]; [12]", "result": 70.5, "unit": "%"},
      {"measurement": "% Conversion", "setting": "[2]; [13]", "result": 83.8, "unit": "%"},
      {"measurement": "Peak Temp (exotherm)", "setting": "[3]; [7]", "result": 249, "unit": "°F."},
      {"measurement": "Peak Temp (exotherm)", "setting": "[3]; [8]", "result": 260, "unit": "°F."}
    ]},
    {"compound": "CCC(CC)(OOC(=O)C(C)C)OOC(=O)C(C)C", "note": "[KP-E, 3,3-bis(2-methylpropionylperoxy)pentane]", "values": [
      {"measurement": "% Conversion", "setting": "[2]; [9]", "result": 0.5, "unit": "%"},
      {"measurement": "% Conversion", "setting": "[2]; [5]", "result": 39.6, "unit": "%"},
      {"measurement": "% Conversion", "setting": "[2]; [6]", "result": 74.4, "unit": "%"},
      {"measurement": "% Conversion", "setting": "[2]; [11]", "result": 76.1, "unit": "%"},
      {"measurement": "% Conversion", "setting": "[2]; [12]", "result": 71.5, "unit": "%"},
      {"measurement": "% Conversion", "setting": "[2]; [13]", "result": 86.7, "unit": "%"}
    ]},
    {"compound": "CCC(CC)C(=O)OOC(CC)(CC)OOC(=O)C(CC)CC", "note": "[KP-F, 3,3-Bis(2-Ethyl Butanoylperoxy)Pentane]", "values": [
      {"measurement": "10 Hour Half-Life Temperature", "setting": "[1]", "result": 40, "unit": "°C"},
      {"measurement": "% Conversion", "setting": "[2]; [9]", "result": 4.3, "unit": "%"},
      {"measurement": "% Conversion", "setting": "[2]; [5]", "result": 88.3, "unit": "%"},
      {"measurement": "% Conversion", "setting": "[2]; [14]", "result": 82.5, "unit": "%"},
      {"measurement": "% Conversion", "setting": "[2]; [6]", "result": 92.5, "unit": "%"},
      {"measurement": "% Conversion", "setting": "[2]; [10]", "result": 74.1, "unit": "%"},
      {"measurement": "% Conversion", "setting": "[2]; [11]", "result": 85.9, "unit": "%"},
      {"measurement": "% Conversion", "setting": "[2]; [12]", "result": 67.8, "unit": "%"},
      {"measurement": "% Conversion", "setting": "[2]; [13]", "result": 81.8, "unit": "%"},
      {"measurement": "Peak Temp (exotherm)", "setting": "[3]; [8]", "result": 271, "unit": "°F."}
    ]},
    {"compound": "CCCC(C)C(=O)OOC(CC)(CC)OOC(=O)C(C)CCC", "note": "(centres unmarked) [KP-G, 3,3-bis(2-methylpentanoylperoxy)pentane]", "values": [
      {"measurement": "% Conversion", "setting": "[2]; [9]", "result": 1.6, "unit": "%"},
      {"measurement": "% Conversion", "setting": "[2]; [5]", "result": 67.3, "unit": "%"},
      {"measurement": "% Conversion", "setting": "[2]; [6]", "result": 88.5, "unit": "%"},
      {"measurement": "% Conversion", "setting": "[2]; [10]", "result": 72.8, "unit": "%"},
      {"measurement": "% Conversion", "setting": "[2]; [11]", "result": 86.2, "unit": "%"},
      {"measurement": "% Conversion", "setting": "[2]; [12]", "result": 72.6, "unit": "%"},
      {"measurement": "% Conversion", "setting": "[2]; [13]", "result": 85.9, "unit": "%"}
    ]},
    {"compound": "CCCCC(CC)C(=O)OOC(C)(CC(C)(C)O)OOC(=O)C(CC)CCCC", "note": "(centres unmarked) [KP-H, 2,2-bis(2-ethylhexanoylperoxy)-4-hydroxy-4-methylpentane]", "values": [
      {"measurement": "% Conversion", "setting": "[2]; [11]", "result": 63.9, "unit": "%"},
      {"measurement": "% Conversion", "setting": "[2]; [13]", "result": 58.1, "unit": "%"}
    ]},
    {"compound": "CCC(CC)C(=O)OOC(C)(CC(C)(C)O)OOC(=O)C(CC)CC", "note": "[KP-I, 2,2-bis(2-ethylbutanoylperoxy)-4-hydroxy-4-methylpentane]", "values": [
      {"measurement": "% Conversion", "setting": "[2]; [11]", "result": 66.1, "unit": "%"},
      {"measurement": "% Conversion", "setting": "[2]; [13]", "result": 65.4, "unit": "%"}
    ]}
  ]
}
